{"source": "paper PMC10349806", "about": "(Nature Communications, 2023)", "biological_target": "PfCRT^Dd2 (Plasmodium falciparum, UniProt Q9N623, A220S/I356T/K76T/M74I/N326S/N75E/Q271E/R371I)", "sequence (Q9N623 whole entry A220S/I356T/K76T/M74I/N326S/N75E/Q271E/R371I)": "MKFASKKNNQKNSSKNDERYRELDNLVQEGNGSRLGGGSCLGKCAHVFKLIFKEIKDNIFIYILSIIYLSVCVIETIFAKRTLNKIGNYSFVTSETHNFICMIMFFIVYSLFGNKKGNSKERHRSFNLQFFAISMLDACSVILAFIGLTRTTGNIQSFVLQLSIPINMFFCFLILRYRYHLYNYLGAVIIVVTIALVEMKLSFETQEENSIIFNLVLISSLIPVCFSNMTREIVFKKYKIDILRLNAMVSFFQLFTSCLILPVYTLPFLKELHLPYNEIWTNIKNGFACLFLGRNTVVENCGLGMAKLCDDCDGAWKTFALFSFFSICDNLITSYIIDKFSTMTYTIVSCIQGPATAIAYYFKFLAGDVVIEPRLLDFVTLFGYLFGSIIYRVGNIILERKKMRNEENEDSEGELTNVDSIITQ", "test": "Drug uptake assay, X. laevis oocytes expressing PfCRT^Dd2", "format": "cell-based", "conditions": "for v-1 pH 4.5 / v-1 pH 5.0 / v-1 pH 5.5 / v-1 pH 6.0: Lineweaver-Burk", "method": "Oocytes were obtained as described previously. Briefly, adult (>2 years old) female X. laevis frogs (NASCO) were anesthetized in a cooled solution of ethyl 3-amino benzoate methanesulfonate (0.1%, w/v), followed by a surgical removal of parts of the ovary. The ovary lobes were carefully dissected and small pieces of oocytes were incubated in Ca^2+-free ND96 buffer (96 mM NaCl, 2 mM KCl, 1 mM MgCl2 buffered with 5 mM HEPES/NaOH, pH 7.5) supplemented with collagenase D (0.1%, w/v; Roche), BSA (0.5%, w/v), and 9 mm Na2HPO4 at 18 °C for 14-16 h while gentle shaking. After incubation, the oocytes were carefully washed several times with ND96 buffer (96 mM NaCl, 2 mM KCl, 1.8 mM CaCl2, 1 mM MgCl2 buffered with 5 mM HEPES/NaOH, pH 7.5) supplemented with 100 mg l^−1 gentamycin). Defolliculated and healthy-looking stage V-VI oocytes were manually selected for RNA microinjection. The RNA was generated as following: The codon-optimized sequences of PfCRT variants were cloned into the pSP64T expression vector. After vector linearization using the restriction endonucleases BamHI or SalI (New England Biolabs), transcription was performed using the in vitro SP6 mMessage mMachine Kit (Ambion)[34]. The obtained RNA was kept at −80 °C and diluted with nuclease-free water to a concentration of 0.6 μg μl^−1. Precision-bore glass capillary tubes (3.5-inch glass capillaries; Drummond Scientific Co.) were pulled on a vertical puller (P-87 Flaming/Brown micropipette puller, Sutter Instrument Co.), graduated, and placed on a microinjector (Nanoject II Auto-Nanoliter Injector, Drummond Scientific Co.). 50 nl of nuclease-free water alone (control oocytes) or 50 nl of 0.6 μg μl^−1 RNA were injected under stereomicroscopic control. Injected oocytes were incubated for 46–72 h at 18 °C with twice-daily buffer changes before usage in experiments.\nDrug uptake assays were performed as described previously[21],[22],[24],[34]. […] The direction of radio-labeled drug transport is here from the mostly acidic extracellular solution (pH 4.5 or 6.0, as indicated) into the oocyte cytosol (pH ∼ 7.2), which corresponds to the efflux of drug from the acidic digestive vacuole (pH 5.2) into the parasite cytoplasm (pH 7.2). The topology of PfCRT in the oolemma is such that both the N- and C-terminus face the extracellular milieu[3],[22]. In the parasite, the N- and C-terminus face the lumen of the digestive vacuole. […] For determination of the amount of drug uptake for each oocyte, the reaction medium was removed and the oocytes were washed three times with 2 ml of ice-cold ND96 buffer. Each oocyte was individually transferred to a scintillation vial containing 5% sodium dodecyl sulfate (200 μl) for lysis. […] Oocytes that were injected with water instead of RNA were analyzed in parallel, representing the uptake of a drug by diffusion and/or endogenous permeation pathways. The resulting value represents the “background“ level of drug accumulation in oocytes (in-depth discussion in[22]). The specific PfCRT-mediated uptake was determined by subtracting the corresponding background value measured in water-injected oocytes from that of PfCRT-expressing oocytes. In all cases, at least three separate experiments were performed on oocytes from different frogs (biological replicate), and for each condition in an experiment, measurements were made from 10 oocytes per treatment. For pH 5.5, 6.0, and 6.5, ND96 was buffered with 5 mM MES/Tris base. For pH 4.5, 5 mM Homo-Pipes was used as a buffer and 5 mM HEPES for uptake at pH 7.0.", "note": "Several values for one entry are separate records, joined by “and”; a condition that tells them apart may be missing. Identical values can stand only once.", "data": [{"smiles": "CCN(CC)CCCC(C)Nc1ccnc2cc(Cl)ccc12", "note": "(centres unmarked) [CQ, chloroquine]", "values": [{"measurement": "PfCRTDd2-mediated CQ transport activity", "setting": "300 µM CQ, time 90 min", "value": 21.08, "unit": "pmol oocyte-1"}, {"measurement": "v-1 pH 4.5", "setting": "300 µM CQ", "value": "0.11 (pmol oocyte-1 h-1)-1"}, {"measurement": "v-1 pH 5.0", "setting": "300 µM CQ", "value": "0.09 (pmol oocyte-1 h-1)-1"}, {"measurement": "v-1 pH 5.5", "setting": "300 µM CQ", "value": "0.08 (pmol oocyte-1 h-1)-1"}, {"measurement": "v-1 pH 6.0", "setting": "300 µM CQ", "value": "0.0649 (pmol oocyte-1 h-1)-1"}, {"measurement": "PfCRTDd2 transport activity", "setting": "400 µM CQ, pH 4.5, 60 min", "value": "9.19 pmol oocyte-1 h-1 and 9.21 pmol oocyte-1 h-1 and 9.15 pmol oocyte-1 h-1 and 10.13 pmol oocyte-1 h-1 and 7.52 pmol oocyte-1 h-1 and 9.96 pmol oocyte-1 h-1"}, {"measurement": "PfCRTDd2 transport activity", "setting": "400 µM CQ, pH 5.0, 60 min", "value": 11.32, "unit": "pmol oocyte-1 h-1"}, {"measurement": "PfCRTDd2 transport activity 400 µM CQ pH 5.0", "setting": "400 µM CQ, pH 5.0, individual replicates (Fig 4a)", "value": "11.40 pmol oocyte-1 h-1 and 11.89 pmol oocyte-1 h-1 and 10.67 pmol oocyte-1 h-1"}, {"measurement": "PfCRTDd2 transport activity", "setting": "400 µM CQ, pH 5.5, 60 min", "value": 13.77, "unit": "pmol oocyte-1 h-1"}, {"measurement": "PfCRTDd2 transport activity 400 µM CQ pH 5.5", "setting": "400 µM CQ, pH 5.5, individual replicates (Fig 4a)", "value": "14.89 pmol oocyte-1 h-1 and 13.71 pmol oocyte-1 h-1 and 13.31 pmol oocyte-1 h-1"}, {"measurement": "PfCRTDd2 transport activity", "setting": "400 µM CQ, pH 6.0, 60 min", "value": "19.62 pmol oocyte-1 h-1 and 19.38 pmol oocyte-1 h-1 and 19.10 pmol oocyte-1 h-1 and 20.37 pmol oocyte-1 h-1"}, {"measurement": "PfCRTDd2 transport activity 400 µM CQ pH 6.0", "setting": "400 µM CQ, pH 6.0, individual replicates (Fig 4a)", "value": "19.38 pmol oocyte-1 h-1 and 19.10 pmol oocyte-1 h-1 and 20.37 pmol oocyte-1 h-1"}, {"measurement": "PfCRTDd2-mediated CQ transport activity", "setting": "400 µM CQ, time 0 min", "value": 0.00, "unit": "pmol oocyte-1"}, {"measurement": "PfCRTDd2-mediated CQ transport activity", "setting": "400 µM CQ, time 30 min", "value": 11.37, "unit": "pmol oocyte-1"}, {"measurement": "PfCRTDd2-mediated CQ transport activity", "setting": "400 µM CQ, time 60 min", "value": 18.93, "unit": "pmol oocyte-1"}, {"measurement": "PfCRTDd2-mediated CQ transport activity", "setting": "400 µM CQ, time 90 min", "value": 23.37, "unit": "pmol oocyte-1"}, {"measurement": "v-1 pH 4.5", "setting": "400 µM CQ", "value": "0.11 (pmol oocyte-1 h-1)-1"}, {"measurement": "v-1 pH 5.0", "setting": "400 µM CQ", "value": "0.09 (pmol oocyte-1 h-1)-1"}, {"measurement": "v-1 pH 5.5", "setting": "400 µM CQ", "value": "0.07 (pmol oocyte-1 h-1)-1"}, {"measurement": "v-1 pH 6.0", "setting": "400 µM CQ", "value": "0.05 (pmol oocyte-1 h-1)-1"}, {"measurement": "PfCRTDd2 transport activity", "setting": "500 µM CQ, pH 4.5, 60 min", "value": "9.38 pmol oocyte-1 h-1 and 9.85 pmol oocyte-1 h-1 and 9.73 pmol oocyte-1 h-1 and 10.40 pmol oocyte-1 h-1 and 7.53 pmol oocyte-1 h-1"}, {"measurement": "PfCRTDd2 transport activity 500 µM CQ pH 4.5", "setting": "500 µM CQ, pH 4.5, individual replicates (Fig 4a)", "value": "9.85 pmol oocyte-1 h-1 and 9.73 pmol oocyte-1 h-1 and 10.40 pmol oocyte-1 h-1 and 7.53 pmol oocyte-1 h-1"}, {"measurement": "PfCRTDd2 transport activity", "setting": "500 µM CQ, pH 5.0, 60 min", "value": 11.35, "unit": "pmol oocyte-1 h-1"}, {"measurement": "PfCRTDd2 transport activity 500 µM CQ pH 5.0", "setting": "500 µM CQ, pH 5.0, individual replicates (Fig 4a)", "value": 12.28, "unit": "pmol oocyte-1 h-1"}, {"measurement": "PfCRTDd2 transport activity", "setting": "500 µM CQ, pH 5.5, 60 min", "value": 14.75, "unit": "pmol oocyte-1 h-1"}, {"measurement": "PfCRTDd2 transport activity 500 µM CQ pH 5.5", "setting": "500 µM CQ, pH 5.5, individual replicates (Fig 4a)", "value": "14.32 pmol oocyte-1 h-1 and 15.56 pmol oocyte-1 h-1 and 14.38 pmol oocyte-1 h-1 and 14.75 pmol oocyte-1 h-1"}, {"measurement": "PfCRTDd2 transport activity", "setting": "500 µM CQ, pH 6.0, 60 min", "value": "20.73 pmol oocyte-1 h-1 and 20.81 pmol oocyte-1 h-1 and 20.59 pmol oocyte-1 h-1 and 20.78 pmol oocyte-1 h-1"}, {"measurement": "PfCRTDd2 transport activity 500 µM CQ pH 6.0", "setting": "500 µM CQ, pH 6.0, individual replicates (Fig 4a)", "value": "20.81 pmol oocyte-1 h-1 and 20.59 pmol oocyte-1 h-1 and 20.78 pmol oocyte-1 h-1"}, {"measurement": "PfCRTDd2-mediated CQ transport activity", "setting": "500 µM CQ, time 0 min", "value": 0.00, "unit": "pmol oocyte-1"}, {"measurement": "PfCRTDd2-mediated CQ transport activity", "setting": "500 µM CQ, time 30 min", "value": 18.55, "unit": "pmol oocyte-1"}, {"measurement": "PfCRTDd2-mediated CQ transport activity", "setting": "500 µM CQ, time 60 min", "value": 25.91, "unit": "pmol oocyte-1"}, {"measurement": "PfCRTDd2-mediated CQ transport activity", "setting": "500 µM CQ, time 90 min", "value": 27.18, "unit": "pmol oocyte-1"}, {"measurement": "v-1 pH 4.5", "setting": "500 µM CQ", "value": "0.11 (pmol oocyte-1 h-1)-1"}, {"measurement": "v-1 pH 5.0", "setting": "500 µM CQ", "value": "0.09 (pmol oocyte-1 h-1)-1"}, {"measurement": "v-1 pH 5.5", "setting": "500 µM CQ", "value": "0.07 (pmol oocyte-1 h-1)-1"}]}]}
